Data: patent publication US11560360B2, “Therapeutic compounds” (ARIZONA BOARD OF REGENTS ON BEHALF OF ARIZONA STATE …, priority 2016, dated 2023)

Assays:
[1] = system: mitochondrial inner membrane potential in FRDA lymphocytes; experiment: JC-1 mitochondrial membrane potential (Δψm) assay; type: cell-based, human; details: 16 h pre-treatment, JC-1, FACS (FIG. 4)
Description: In each analysis, 10000 events were recorded. Depolarization with carbonyl cyanide p-(trifluoromethoxy) phenylhydrazone (FCCP), was used to serve as a positive control.
The ability of 1-5 to maintain mitochondrial membrane potential (ΔΨm) compared to the parent compound MV was studied. ΔΨm was determined using the cationic fluorescent dye 5, 5′, 6, 6′-tetrachloro-1, 1′, 3, 3′-tetraethylbenzimidazolyl carbocyanine iodide (JC-1), which is a lipophilic cation that selectively accumulates in mitochondria due to the negative potential across the inner mitochondrial membrane. The dye exists as a monomer at low concentrations giving a green fluorescence. […] Therefore, mitochondrial depolarization is indicated by a decrease in red/green fluorescence ratio. […]
The ability of the test compounds to depolarize or maintains mitochondrial inner membrane potential (Δψm) was assessed using the JC-1 probe. […] JC-1 is a dual stain, which can identify high membrane potential through J-aggregates (red fluorescence) and low membrane potential through J-monomers (green fluorescence). […] Cells were resuspended in phosphate buffered saline supplemented with 20 mM glucose and were analyzed immediately by FACS (C6 Accuri, BD Biosciences, San Jose, Calif.), using a 488 nm excitation laser and the FL1-H channel 530±15 nm emission filter and the FL2-H channel 585±15 nm. […]

FRDA lymphocytes [2] = experiment: Measurement of cellular ATP concentration (firefly luciferase); type: cell-based, human; details: glucose free media (25 mM galactose), relative to untreated control (FIG. 6)
Description: Results are expressed as percentage of total ATP relative to untreated control.
ATP levels in FRDA lymphocytes were measured using firefly luciferase. The cells were grown on glucose-free media supplemented with galactose for 24 h prior to the addition of the test compounds. Since cells grown in galactose rely mostly on oxidative phosphorylation (OX-PHOS) to produce their ATP, they become more sensitive to mitochondrial respiratory chain inhibitors than cells grown in glucose medium.
Measurement of Cellular ATP Concentration
Total ATP levels in FRDA lymphocytes with or without partially blocking complex I activity with rotenone (5 nM) were measured using firefly luciferase as a means to measure ATP level. The cells were grown on glucose-free media supplemented with galactose. Since cells grown in galactose rely mostly on oxidative phosphorylation (OXPHOS) to produce their ATP, they become more sensitive to mitochondria respiratory chain inhibitors than cells grown in glucose medium. Briefly, lymphocytes (2×10^5 cell/mL) were plated (1 mL) in 24-well plates, treated with the test compounds, and then incubated at 37° C. for 48 h in a humidified atmosphere containing 5% CO2 in air. FRDA lymphocytes with partial inhibition of complex I, cells were preincubated with test compounds for overnight before rotenone (5 nM) treatment for 24 h. Cells in each well were mixed and transferred (100 μL) to 96-well microtiter black-walled cell culture plates (Costar, Corning, N.Y.). The total intracellular ATP level was measured in a luminator (Clarity™ luminescence microplate reader) using an ATP Bioluminescence Assay Kit (ViaLight®-Plus ATP monitoring reagent kit, Lonza) following the manufacturer's protocol. The total ATP level was expressed as a percentage of untreated control. Data are reported as the mean of at least three independent experiments.

FRDA lymphocytes [3] = experiment: Cytotoxicity assay in FRDA lymphocytes cultured in glucose free media (galactose), Live/Dead flow cytometry; type: cell-based
Description: Flow cytometric determination of cell viability by fluorescence labeling was used employing calcein acetoxy-methyl-ester and ethidium homodimer-1 as live and dead cell stains
Cytotoxicity was assessed by the dye exclusion method. Live cells have intact membranes, which exclude a variety of dyes that easily penetrate the damaged, permeable membranes of non-viable cells. Propidium iodide, a membrane impermeant dye, is generally excluded from viable cells, although it can enter non-viable cells and bind to double-stranded DNA by intercalating between base pairs. Compounds 1-5 were tested for their cytotoxicity in FRDA lymphocytes using FACS analysis with propidium iodide. The results are depicted in FIG. 2. From the results it is evident that cytotoxicity decreases with increasing lipophilicity in lower as well as higher concentrations for compounds 1-5.
Evaluation of compounds 1-5 for their cytotoxicity and their ability to function within the mitochondrial respiratory chain was carried out by incubation of the prepared compounds for 24 or 48 h with FRDA lymphocytes. A nutrient-sensitized screening strategy has been used by culturing FRDA cells in galactose as the sole sugar source which forces mammalian cells to rely on mitochondrial oxidative phosphorylation (OXPHOS) to produce their ATP; they also become more sensitive to mitochondrial respiratory chain inhibitors than cells grown in glucose medium. Compounds 1-5 were tested for their cytotoxicity in FRDA lymphocytes using a simultaneous staining with a two-color fluorescence assay, the Live/Dead® Viability/Cytotoxicity Kit (Molecular Probes). This assay is used to measure two recognized parameters of cell viability, intracellular esterase activity and plasma integrity. The membrane-impermeant DNA dye ethidium homodimer-1 (EthD-1) was used to identify dead cells whose plasma membrane integrity was disrupted. The membrane-permeant dye calcein-AM was used to label live cells. It penetrates into the cells where it is metabolized by cytoplasmic esterases and becomes a fluorescent but membrane-impermeant probe which is retained in viable cells. One mL of FRDA lymphocyte cells (5×10^5 cells) was plated in a 24-well plate in glucose free media (galactose 25 mM), treated with the test compounds and incubated at 37° C. for 24 h or 48 h in a humidified atmosphere containing 5% CO2 in air. Cells were collected by centrifugation at 300×g for 3 min and washed with phosphate buffered saline. […] The samples were analyzed immediately by flow cytometry (C6 Accuri, BD Biosciences, San Jose, Calif.), using a 488 nm excitation laser and the and the FL1-H channel 530±15 nm emission filter and the FL2-H channel 585±15 nm. For each analysis 10,000 events were recorded and analyzed using C6 Accuri software (BD Biosciences).

| SMILES | preservation of mitochondrial membrane potential (Δψm) [1] | cellular ATP levels (FRDA lymphocytes [2]) | cytotoxicity (FRDA lymphocytes [3]; FRDA lymphocytes on galactose for 48 h (FIG. 2)) | cytotoxicity (FRDA lymphocytes [3]; FRDA lymphocytes, 0.5-2.5 μM concentrations) |
| --- | --- | --- | --- | --- |
| CN(C)c1ccc2nc3ccc(=[N+](C)C)cc-3sc2c1 [MB, Methylene blue, reference compound] | significantly depolarized Δψm | inhibited ATP production, especially at higher concentrations | cytotoxic | strong cytotoxicity |
| CN(C)c1ccc2nc3ccc(=O)cc-3sc2c1 [MV, Methylene violet, reference compound] | significantly depolarized Δψm | strongly reduces cellular ATP levels in a concentration dependent manner | – | – |
